System: HCC1599
Assay: normalised response (% of control), CellTiter-Glo; higher = more viable cells (100 = DMSO, 0 = benzethonium chloride kill control)
Settings: incubation time: 72 h
Description: (§1)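 DSRT, 72 h incubation, CellTox Green / CellTiter-Glo readout. Signal is normalised to DMSO and benzethonium chloride controls. Value is the normalised response at dose 3.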

SMILES | normalised response
O=C(NC[C@H](O)CO)c1ccncc1Nc1ccc(I)cc1F [Pimasertib] (100 nM) | 85.2%

System: MDA-MB-468
Assay: as above
Settings: incubation time: 72 h
Description: as §1

SMILES | normalised response
COc1ccc(-c2cc3c(C)nc(N)nc3n([C@H]3CC[C@H](OCCO)CC3)c2=O)cn1 (100 nM) | 68.8%
CC/C(=C(\c1ccc(O)cc1)c1ccc(OCCN(C)C)cc1)c1ccccc1 [4-hydroxytamoxifen] (100 nM) | 93.2%
O=C(Nc1c[nH]nc1-c1nc2ccc(CN3CCOCC3)cc2[nH]1)NC1CC1 [AT9283] (10 nM) | 96.6%
CO[C@@H](C(=O)N1Cc2[nH]nc(NC(=O)c3ccc(N4CCN(C)CC4)cc3)c2C1)c1ccccc1 [Danusertib] (100 nM) | 50.5%
O=S(=O)(c1cccc2cnccc12)N1CCCNCC1 [Fasudil] (500 nM) | 101%
Nc1cccc2c1CN(C1CCC(=O)NC1=O)C2=O (stereo unspecified) [Lenalidomide] (100 nM) | 111%
Nc1ccccc1NC(=O)c1ccc(CNc2nccc(-c3cccnc3)n2)cc1 [Mocetinostat] (100 nM) | 90.6%
Cc1ccc(Nc2nccc(N(C)c3ccc4c(C)n(C)nc4c3)n2)cc1S(N)(=O)=O [Pazopanib] (100 nM) | 104%
O=C(NC[C@H](O)CO)c1ccncc1Nc1ccc(I)cc1F [Pimasertib] (100 nM) | 95.3%

System: MDA-MB-436
Assay: as above
Settings: incubation time: 72 h
Description: as §1

SMILES | normalised response
COc1ccc(-c2cc3c(C)nc(N)nc3n([C@H]3CC[C@H](OCCO)CC3)c2=O)cn1 (100 nM) | 77%
CC/C(=C(\c1ccc(O)cc1)c1ccc(OCCN(C)C)cc1)c1ccccc1 [4-hydroxytamoxifen] (100 nM) | 94.9%
O=C(Nc1c[nH]nc1-c1nc2ccc(CN3CCOCC3)cc2[nH]1)NC1CC1 [AT9283] (10 nM) | 105%
CO[C@@H](C(=O)N1Cc2[nH]nc(NC(=O)c3ccc(N4CCN(C)CC4)cc3)c2C1)c1ccccc1 [Danusertib] (100 nM) | 101%
O=S(=O)(c1cccc2cnccc12)N1CCCNCC1 [Fasudil] (500 nM) | 103%
Nc1cccc2c1CN(C1CCC(=O)NC1=O)C2=O (stereo unspecified) [Lenalidomide] (100 nM) | 93.2%
Nc1ccccc1NC(=O)c1ccc(CNc2nccc(-c3cccnc3)n2)cc1 [Mocetinostat] (100 nM) | 90.7%
Cc1ccc(Nc2nccc(N(C)c3ccc4c(C)n(C)nc4c3)n2)cc1S(N)(=O)=O [Pazopanib] (100 nM) | 103%
O=C(NC[C@H](O)CO)c1ccncc1Nc1ccc(I)cc1F [Pimasertib] (100 nM) | 97.5%

System: MFM-223
Assay: as above
Settings: incubation time: 72 h
Description: as §1

SMILES | normalised response
COc1ccc(-c2cc3c(C)nc(N)nc3n([C@H]3CC[C@H](OCCO)CC3)c2=O)cn1 (100 nM) | 72.3%
CC/C(=C(\c1ccc(O)cc1)c1ccc(OCCN(C)C)cc1)c1ccccc1 [4-hydroxytamoxifen] (100 nM) | 99.1%
O=C(Nc1c[nH]nc1-c1nc2ccc(CN3CCOCC3)cc2[nH]1)NC1CC1 [AT9283] (10 nM) | 98.2%
CO[C@@H](C(=O)N1Cc2[nH]nc(NC(=O)c3ccc(N4CCN(C)CC4)cc3)c2C1)c1ccccc1 [Danusertib] (100 nM) | 67.1%
O=S(=O)(c1cccc2cnccc12)N1CCCNCC1 [Fasudil] (500 nM) | 108%
Nc1cccc2c1CN(C1CCC(=O)NC1=O)C2=O (stereo unspecified) [Lenalidomide] (100 nM) | 103%
Nc1ccccc1NC(=O)c1ccc(CNc2nccc(-c3cccnc3)n2)cc1 [Mocetinostat] (100 nM) | 92.6%
Cc1ccc(Nc2nccc(N(C)c3ccc4c(C)n(C)nc4c3)n2)cc1S(N)(=O)=O [Pazopanib] (100 nM) | 103%
O=C(NC[C@H](O)CO)c1ccncc1Nc1ccc(I)cc1F [Pimasertib] (100 nM) | 103%

System: MCF-10A
Assay: as above
Settings: incubation time: 72 h
Description: as §1

SMILES | normalised response
COc1ccc(-c2cc3c(C)nc(N)nc3n([C@H]3CC[C@H](OCCO)CC3)c2=O)cn1 (100 nM) | 58%
CC/C(=C(\c1ccc(O)cc1)c1ccc(OCCN(C)C)cc1)c1ccccc1 [4-hydroxytamoxifen] (100 nM) | 106%
O=C(Nc1c[nH]nc1-c1nc2ccc(CN3CCOCC3)cc2[nH]1)NC1CC1 [AT9283] (10 nM) | 96.9%
CO[C@@H](C(=O)N1Cc2[nH]nc(NC(=O)c3ccc(N4CCN(C)CC4)cc3)c2C1)c1ccccc1 [Danusertib] (100 nM) | 84.6%
O=S(=O)(c1cccc2cnccc12)N1CCCNCC1 [Fasudil] (500 nM) | 90.7%
Nc1cccc2c1CN(C1CCC(=O)NC1=O)C2=O (stereo unspecified) [Lenalidomide] (100 nM) | 99.3%
Nc1ccccc1NC(=O)c1ccc(CNc2nccc(-c3cccnc3)n2)cc1 [Mocetinostat] (100 nM) | 157%
Cc1ccc(Nc2nccc(N(C)c3ccc4c(C)n(C)nc4c3)n2)cc1S(N)(=O)=O [Pazopanib] (100 nM) | 97.3%
O=C(NC[C@H](O)CO)c1ccncc1Nc1ccc(I)cc1F [Pimasertib] (100 nM) | 41.7%

System: CAL-120
Assay: as above
Settings: incubation time: 72 h
Description: as §1

SMILES | normalised response
COc1ccc(-c2cc3c(C)nc(N)nc3n([C@H]3CC[C@H](OCCO)CC3)c2=O)cn1 (100 nM) | 67.7%
CC/C(=C(\c1ccc(O)cc1)c1ccc(OCCN(C)C)cc1)c1ccccc1 [4-hydroxytamoxifen] (100 nM) | 105%
O=C(Nc1c[nH]nc1-c1nc2ccc(CN3CCOCC3)cc2[nH]1)NC1CC1 [AT9283] (10 nM) | 103%
CO[C@@H](C(=O)N1Cc2[nH]nc(NC(=O)c3ccc(N4CCN(C)CC4)cc3)c2C1)c1ccccc1 [Danusertib] (100 nM) | 89%
O=S(=O)(c1cccc2cnccc12)N1CCCNCC1 [Fasudil] (500 nM) | 97.9%
Nc1cccc2c1CN(C1CCC(=O)NC1=O)C2=O (stereo unspecified) [Lenalidomide] (100 nM) | 93.3%
Nc1ccccc1NC(=O)c1ccc(CNc2nccc(-c3cccnc3)n2)cc1 [Mocetinostat] (100 nM) | 102%
Cc1ccc(Nc2nccc(N(C)c3ccc4c(C)n(C)nc4c3)n2)cc1S(N)(=O)=O [Pazopanib] (100 nM) | 95.9%
O=C(NC[C@H](O)CO)c1ccncc1Nc1ccc(I)cc1F [Pimasertib] (100 nM) | 92.4%

System: Hs578T
Assay: as above
Settings: incubation time: 72 h
Description: as §1

SMILES | normalised response
COc1ccc(-c2cc3c(C)nc(N)nc3n([C@H]3CC[C@H](OCCO)CC3)c2=O)cn1 (100 nM) | 73.7%
CC/C(=C(\c1ccc(O)cc1)c1ccc(OCCN(C)C)cc1)c1ccccc1 [4-hydroxytamoxifen] (100 nM) | 98%
O=C(Nc1c[nH]nc1-c1nc2ccc(CN3CCOCC3)cc2[nH]1)NC1CC1 [AT9283] (10 nM) | 101%
CO[C@@H](C(=O)N1Cc2[nH]nc(NC(=O)c3ccc(N4CCN(C)CC4)cc3)c2C1)c1ccccc1 [Danusertib] (100 nM) | 97%
O=S(=O)(c1cccc2cnccc12)N1CCCNCC1 [Fasudil] (500 nM) | 104%
Nc1cccc2c1CN(C1CCC(=O)NC1=O)C2=O (stereo unspecified) [Lenalidomide] (100 nM) | 101%
Nc1ccccc1NC(=O)c1ccc(CNc2nccc(-c3cccnc3)n2)cc1 [Mocetinostat] (100 nM) | 93.2%
Cc1ccc(Nc2nccc(N(C)c3ccc4c(C)n(C)nc4c3)n2)cc1S(N)(=O)=O [Pazopanib] (100 nM) | 103%
O=C(NC[C@H](O)CO)c1ccncc1Nc1ccc(I)cc1F [Pimasertib] (100 nM) | 88.9%

System: DU-4475
Assay: as above
Settings: incubation time: 72 h
Description: as §1

SMILES | normalised response
COc1ccc(-c2cc3c(C)nc(N)nc3n([C@H]3CC[C@H](OCCO)CC3)c2=O)cn1 (100 nM) | 83.2%
CC/C(=C(\c1ccc(O)cc1)c1ccc(OCCN(C)C)cc1)c1ccccc1 [4-hydroxytamoxifen] (100 nM) | 104%
O=C(Nc1c[nH]nc1-c1nc2ccc(CN3CCOCC3)cc2[nH]1)NC1CC1 [AT9283] (10 nM) | 101%
CO[C@@H](C(=O)N1Cc2[nH]nc(NC(=O)c3ccc(N4CCN(C)CC4)cc3)c2C1)c1ccccc1 [Danusertib] (100 nM) | 100%
O=S(=O)(c1cccc2cnccc12)N1CCCNCC1 [Fasudil] (500 nM) | 106%
Nc1cccc2c1CN(C1CCC(=O)NC1=O)C2=O (stereo unspecified) [Lenalidomide] (100 nM) | 104%
Nc1ccccc1NC(=O)c1ccc(CNc2nccc(-c3cccnc3)n2)cc1 [Mocetinostat] (100 nM) | 107%
Cc1ccc(Nc2nccc(N(C)c3ccc4c(C)n(C)nc4c3)n2)cc1S(N)(=O)=O [Pazopanib] (100 nM) | 100%
O=C(NC[C@H](O)CO)c1ccncc1Nc1ccc(I)cc1F [Pimasertib] (100 nM) | 4.09%

System: BT-474
Assay: as above
Settings: incubation time: 72 h
Description: as §1

SMILES | normalised response
COc1ccc(-c2cc3c(C)nc(N)nc3n([C@H]3CC[C@H](OCCO)CC3)c2=O)cn1 (100 nM) | 67.2%
CC/C(=C(\c1ccc(O)cc1)c1ccc(OCCN(C)C)cc1)c1ccccc1 [4-hydroxytamoxifen] (100 nM) | 99.1%
O=C(Nc1c[nH]nc1-c1nc2ccc(CN3CCOCC3)cc2[nH]1)NC1CC1 [AT9283] (10 nM) | 93.8%
CO[C@@H](C(=O)N1Cc2[nH]nc(NC(=O)c3ccc(N4CCN(C)CC4)cc3)c2C1)c1ccccc1 [Danusertib] (100 nM) | 98.6%
O=S(=O)(c1cccc2cnccc12)N1CCCNCC1 [Fasudil] (500 nM) | 98.3%
Nc1cccc2c1CN(C1CCC(=O)NC1=O)C2=O (stereo unspecified) [Lenalidomide] (100 nM) | 103%
Nc1ccccc1NC(=O)c1ccc(CNc2nccc(-c3cccnc3)n2)cc1 [Mocetinostat] (100 nM) | 91.5%
Cc1ccc(Nc2nccc(N(C)c3ccc4c(C)n(C)nc4c3)n2)cc1S(N)(=O)=O [Pazopanib] (100 nM) | 107%
O=C(NC[C@H](O)CO)c1ccncc1Nc1ccc(I)cc1F [Pimasertib] (100 nM) | 81.9%

System: HDQ-P1
Assay: as above
Settings: incubation time: 72 h
Description: as §1

SMILES | normalised response
COc1ccc(-c2cc3c(C)nc(N)nc3n([C@H]3CC[C@H](OCCO)CC3)c2=O)cn1 (100 nM) | 66.3%
CC/C(=C(\c1ccc(O)cc1)c1ccc(OCCN(C)C)cc1)c1ccccc1 [4-hydroxytamoxifen] (100 nM) | 95.9%
O=C(Nc1c[nH]nc1-c1nc2ccc(CN3CCOCC3)cc2[nH]1)NC1CC1 [AT9283] (10 nM) | 101%
CO[C@@H](C(=O)N1Cc2[nH]nc(NC(=O)c3ccc(N4CCN(C)CC4)cc3)c2C1)c1ccccc1 [Danusertib] (100 nM) | 96.4%
O=S(=O)(c1cccc2cnccc12)N1CCCNCC1 [Fasudil] (500 nM) | 105%
Nc1cccc2c1CN(C1CCC(=O)NC1=O)C2=O (stereo unspecified) [Lenalidomide] (100 nM) | 102%
Nc1ccccc1NC(=O)c1ccc(CNc2nccc(-c3cccnc3)n2)cc1 [Mocetinostat] (100 nM) | 88.7%
Cc1ccc(Nc2nccc(N(C)c3ccc4c(C)n(C)nc4c3)n2)cc1S(N)(=O)=O [Pazopanib] (100 nM) | 101%

Source: the supplement of paper PMC4862054
